Experimental data: publication PMC7413254 (Nature Communications, 2020)

How the values were obtained:
Format in all cases: cell-based
PfCRT^Dd2 [1] = molecular target: T1, PfCRT^Dd2 (Plasmodium falciparum, UniProt Q9N623, A220S/I356T/K76T/M74I/N326S/N75E/Q271E/R371I); assay: [3H]CQ uptake into Xenopus oocytes, cis-inhibition by unlabelled solute; conditions: PfCRTDd2 oocytes, background [3H]CQ accumulation subtracted, normalised to oocyte type control
Source text: (§1) The orientation of PfCRT in the parasite’s DV membrane, and also in the oocyte plasma membrane, is such that its N- and C-termini extend into the cytosol. The oocytes were suspended in a reaction buffer adjusted to pH 5.5 to mimic the pH of the DV lumen[1],[2]. In this scenario, the transport of a substrate via PfCRT from the acidic extracellular solution into the oocyte cytosol[15] is analogous to the parasite’s PfCRT-mediated efflux of a substrate from the acidic DV and into the cytosol. Unless specified otherwise, this is the direction in which substrate transport was measured in the oocyte assays.
(§2) Unless specified otherwise, the transport assays were conducted over 1.5 h at 27.5 °C and the reaction buffer was ND96 (96 mM NaCl, 2 mM KCl, 1 mM MgCl2, 1.8 mM CaCl2, 10 mM MES and 10 mM Tris-base) at pH 5.5.
(§3) Ten oocytes were washed twice with the relevant ND96 buffer. […] The assay was terminated by removing the reaction buffer and washing the oocytes with ice-cold ND96 buffer. The oocytes were lysed in 10% (w/v) sodium dodecyl sulfate (SDS) and the radioactivity accumulated within each oocyte was measured with a MicroBeta^2 microplate liquid scintillation analyser (PerkinElmer).
(§4) At least four independent experiments were performed (on different days and using oocytes from different frogs), and within each experiment measurements were made from ten oocytes per treatment.

PfCRT^Ecu1110 [2] = molecular target: T2, PfCRT^Ecu1110 (Plasmodium falciparum, UniProt Q9N623, A220S/I356L/K76T/N326D); assay: as above; conditions: for PfCRT-mediated [3H]CQ transport, cis-inhibition (% PfCRTEcu1110 control): PfCRTEcu1110 oocytes, background [3H]CQ accumulation subtracted, normalised to oocyte type control; for [3H]CQ transport (% PfCRTEcu1110 control), cis-inhibition, PfCRTEcu1110: PfCRT-mediated component (background subtracted), sheet title says normalised to PfCRTDd2 control, mean ± SEM, SEM
Source text: as §1, §2, §3, §4

PfCRT^3D7 = PfCRT^3D7 (Plasmodium falciparum, UniProt Q8IBZ9); assay: cell-based; conditions: PfCRT3D7 oocytes, normalised to oocyte type control
Experimental: as §2
(§5) The intracellular concentrations were calculated using previous estimates of the volume of stage V–VI oocytes (~400 nL[60]). […] The oocytes were injected with VF-6 suspended in 25 nL ND96 buffer adjusted to pH 5.0, 5.5, 6.0 or 7.0, which corresponded to the injection of 2.5–250 fmol of H^+. The Na^+-dependence of the trans-stimulatory effect of VF-6 was assessed by injecting the oocytes with VF-6 suspended in ND96 buffer (pH 5.5) or a Na^+-free version of this buffer (the Na^+ was replaced with choline).
as §4

PfCRT^Dd2 [3] = molecular target: T1, PfCRT^Dd2; assay: cell-based; conditions: for PfCRT-mediated [3H]CQ transport, trans-stimulation (% PfCRTDd2 control): PfCRTDd2 oocytes, normalised to oocyte type control; for [3H]CQ transport (% PfCRTDd2 control), trans-stimulation, PfCRTDd2: PfCRT-mediated component (background subtracted), mean ± SEM, SEM
Experimental: as §2, §5, §4

PfCRT^Ecu1110 [4] = molecular target: T2, PfCRT^Ecu1110; assay: cell-based; conditions: for PfCRT-mediated [3H]CQ transport, trans-stimulation (% PfCRTEcu1110 control): PfCRTEcu1110 oocytes, normalised to oocyte type control; for [3H]CQ transport (% PfCRTDd2 control), trans-stimulation, PfCRTEcu1110: PfCRT-mediated component (background subtracted), sheet title says normalised to PfCRTDd2 control, mean ± SEM, SEM
Experimental: as §2, §5, §4

[5] = [test solute]i = 5 mM (intracellular)
[6] = [test solute]i = 45 mM (intracellular; 30 mM for some solutes due to solubility)
[7] = [test solute]i = 5 mM (injected)
[8] = [test solute]i = 45 mM (30 mM for some solutes due to solubility)

T2 sequence (Q9N623 whole entry A220S/I356L/K76T/N326D): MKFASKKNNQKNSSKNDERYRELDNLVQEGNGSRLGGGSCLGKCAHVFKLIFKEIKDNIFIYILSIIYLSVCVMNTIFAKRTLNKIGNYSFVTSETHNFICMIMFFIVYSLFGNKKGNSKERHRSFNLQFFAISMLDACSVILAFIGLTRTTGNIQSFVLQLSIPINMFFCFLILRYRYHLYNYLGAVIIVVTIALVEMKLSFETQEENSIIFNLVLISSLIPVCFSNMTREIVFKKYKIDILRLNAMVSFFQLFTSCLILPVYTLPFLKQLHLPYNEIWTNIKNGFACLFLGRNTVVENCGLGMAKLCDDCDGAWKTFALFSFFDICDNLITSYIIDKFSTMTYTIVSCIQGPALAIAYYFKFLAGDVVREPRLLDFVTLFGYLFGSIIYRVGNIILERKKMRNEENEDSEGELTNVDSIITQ
PfCRT^3D7, sequence (Q8IBZ9 59-398): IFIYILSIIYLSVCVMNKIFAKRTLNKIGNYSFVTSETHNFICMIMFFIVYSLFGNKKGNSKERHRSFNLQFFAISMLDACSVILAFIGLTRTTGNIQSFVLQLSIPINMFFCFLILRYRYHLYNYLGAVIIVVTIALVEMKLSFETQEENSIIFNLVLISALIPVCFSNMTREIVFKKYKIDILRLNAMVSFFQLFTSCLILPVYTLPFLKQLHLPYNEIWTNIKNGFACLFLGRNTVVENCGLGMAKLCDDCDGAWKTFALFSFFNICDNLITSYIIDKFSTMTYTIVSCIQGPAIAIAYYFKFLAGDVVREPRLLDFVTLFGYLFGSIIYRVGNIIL
T1 sequence (Q9N623 whole entry A220S/I356T/K76T/M74I/N326S/N75E/Q271E/R371I): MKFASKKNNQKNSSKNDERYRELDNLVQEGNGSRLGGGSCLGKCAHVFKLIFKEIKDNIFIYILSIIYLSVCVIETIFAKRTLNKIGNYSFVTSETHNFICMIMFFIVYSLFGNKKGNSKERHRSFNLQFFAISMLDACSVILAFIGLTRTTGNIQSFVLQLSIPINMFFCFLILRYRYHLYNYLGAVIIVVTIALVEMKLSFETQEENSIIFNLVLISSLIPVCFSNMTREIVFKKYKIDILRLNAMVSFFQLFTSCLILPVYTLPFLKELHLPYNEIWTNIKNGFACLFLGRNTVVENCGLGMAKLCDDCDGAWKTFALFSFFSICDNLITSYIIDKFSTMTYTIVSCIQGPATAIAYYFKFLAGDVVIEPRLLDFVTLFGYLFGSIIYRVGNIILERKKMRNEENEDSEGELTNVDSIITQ

Row | Substance | PfCRT-mediated [3H]CQ transport, cis-inhibition (% PfCRTDd2 control) (PfCRT^Dd2 [1]; [test solute] = 0.5 mM) | PfCRT-mediated [3H]CQ transport, cis-inhibition (% PfCRTDd2 control) (PfCRT^Dd2 [1]; [test solute] = 1 mM) | PfCRT-mediated [3H]CQ transport, cis-inhibition (% PfCRTDd2 control) (PfCRT^Dd2 [1]; [test solute] = 2 mM) | PfCRT-mediated [3H]CQ transport, cis-inhibition (% PfCRTEcu1110 control) (PfCRT^Ecu1110 [2]; [test solute] = 0.5 mM) | PfCRT-mediated [3H]CQ transport, cis-inhibition (% PfCRTEcu1110 control) (PfCRT^Ecu1110 [2]; [test solute] = 1 mM) | PfCRT-mediated [3H]CQ transport, cis-inhibition (% PfCRTEcu1110 control) (PfCRT^Ecu1110 [2]; [test solute] = 2 mM) | [3H]CQ transport (% PfCRTEcu1110 control), cis-inhibition, PfCRTEcu1110 (PfCRT^Ecu1110 [2]; [test solute] = 0.5 mM) | [3H]CQ transport (% PfCRTEcu1110 control), cis-inhibition, PfCRTEcu1110 (PfCRT^Ecu1110 [2]; [test solute] = 1 mM) | [3H]CQ transport (% PfCRTEcu1110 control), cis-inhibition, PfCRTEcu1110 (PfCRT^Ecu1110 [2]; [test solute] = 2 mM) | PfCRT-mediated [3H]CQ transport, trans-stimulation (% PfCRT3D7 control) (PfCRT^3D7; [5]) | PfCRT-mediated [3H]CQ transport, trans-stimulation (% PfCRT3D7 control) (PfCRT^3D7; [6]) | PfCRT-mediated [3H]CQ transport, trans-stimulation (% PfCRTDd2 control) (PfCRT^Dd2 [3]; [5]) | PfCRT-mediated [3H]CQ transport, trans-stimulation (% PfCRTDd2 control) (PfCRT^Dd2 [3]; [6]) | [3H]CQ transport (% PfCRTDd2 control), trans-stimulation, PfCRTDd2 (PfCRT^Dd2 [3]; [7]) | [3H]CQ transport (% PfCRTDd2 control), trans-stimulation, PfCRTDd2 (PfCRT^Dd2 [3]; [8]) | PfCRT-mediated [3H]CQ transport, trans-stimulation (% PfCRTEcu1110 control) (PfCRT^Ecu1110 [4]; [5]) | PfCRT-mediated [3H]CQ transport, trans-stimulation (% PfCRTEcu1110 control) (PfCRT^Ecu1110 [4]; [6]) | [3H]CQ transport (% PfCRTDd2 control), trans-stimulation, PfCRTEcu1110 (PfCRT^Ecu1110 [4]; [7]) | [3H]CQ transport (% PfCRTDd2 control), trans-stimulation, PfCRTEcu1110 (PfCRT^Ecu1110 [4]; [8])
1 | FPHFDLS [FS-7] | 30 ± 3.7 % PfCRTDd2 control | 19 ± 0.7 % PfCRTDd2 control | 11 ± 0.7 % PfCRTDd2 control | 39 ± 2.5 % PfCRTEcu1110 control | 31 ± 1.7 % PfCRTEcu1110 control | 17 ± 0.8 % PfCRTEcu1110 control | 12 ± 0.4 % PfCRTEcu1110 control | 10 ± 0.2 % PfCRTEcu1110 control | 5.0 ± 0.04 % PfCRTEcu1110 control | 96 ± 4.6 % PfCRT3D7 control | 99 ± 2.7 % PfCRT3D7 control | 95 ± 4.2 % PfCRTDd2 control | 98 ± 4.1 % PfCRTDd2 control | 95 ± 4.2 % PfCRTDd2 control | 98 ± 4.1 % PfCRTDd2 control | 99 ± 3.6 % PfCRTEcu1110 control | 98 ± 4.3 % PfCRTEcu1110 control | 30 ± 1.3 % PfCRTEcu1110 control | 30 ± 1.4 % PfCRTEcu1110 control
2 | FSDGLA [FA-6] | 29 ± 0.1 % PfCRTDd2 control | 17 ± 0.7 % PfCRTDd2 control | 10 ± 0.3 % PfCRTDd2 control | 60 ± 0.7 % PfCRTEcu1110 control | 42 ± 2.5 % PfCRTEcu1110 control | 32 ± 0.5 % PfCRTEcu1110 control | 19 ± 0.1 % PfCRTEcu1110 control | – | 10 ± 0.3 % PfCRTEcu1110 control | 134 ± 3.2 % PfCRT3D7 control | 190 ± 4.6 % PfCRT3D7 control | 102 ± 6.2 % PfCRTDd2 control | 98 ± 4.2 % PfCRTDd2 control | 102 ± 6.2 % PfCRTDd2 control | 98 ± 4.2 % PfCRTDd2 control | 98 ± 4.5 % PfCRTEcu1110 control | 96 ± 4.7 % PfCRTEcu1110 control | 30 ± 1.4 % PfCRTEcu1110 control | 29 ± 1.3 % PfCRTEcu1110 control
